According to publication PMC11601558, “SLC6A19 inhibition facilitates urinary neutral amino acid excretion and lowers plasma phenylalanine” (JCI Insight, 2024):
Where “and” joins values, the source holds several entries; their conditions need not be identical. Equal values may be shown once. Read-outs that look alike come from different tables or passages of the source. One block for each compound: values may come before it.

Target: T1, human SLC6A19 (Homo sapiens, UniProt Q695T7)
T1 construct: expressed in transfected cells
T1 sequence (Q695T7 1-634): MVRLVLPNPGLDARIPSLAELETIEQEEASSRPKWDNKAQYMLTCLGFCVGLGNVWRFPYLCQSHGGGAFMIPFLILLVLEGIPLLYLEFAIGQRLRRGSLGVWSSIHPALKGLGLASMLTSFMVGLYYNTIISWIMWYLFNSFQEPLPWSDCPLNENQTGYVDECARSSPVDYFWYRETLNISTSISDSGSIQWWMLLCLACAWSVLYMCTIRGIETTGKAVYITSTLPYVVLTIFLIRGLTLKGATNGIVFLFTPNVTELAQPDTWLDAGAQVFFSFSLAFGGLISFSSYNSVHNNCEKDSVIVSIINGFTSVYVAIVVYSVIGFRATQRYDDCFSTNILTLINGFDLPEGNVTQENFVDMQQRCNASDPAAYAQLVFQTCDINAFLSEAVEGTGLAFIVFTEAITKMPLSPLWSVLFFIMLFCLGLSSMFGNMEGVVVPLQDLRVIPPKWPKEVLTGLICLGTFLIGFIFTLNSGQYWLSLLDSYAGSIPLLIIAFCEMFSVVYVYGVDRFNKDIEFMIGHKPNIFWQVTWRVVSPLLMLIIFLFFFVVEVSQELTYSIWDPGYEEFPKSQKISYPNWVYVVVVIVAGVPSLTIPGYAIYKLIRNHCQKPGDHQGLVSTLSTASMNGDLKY
T1 sequence (Q9HBJ8 15-222 partner): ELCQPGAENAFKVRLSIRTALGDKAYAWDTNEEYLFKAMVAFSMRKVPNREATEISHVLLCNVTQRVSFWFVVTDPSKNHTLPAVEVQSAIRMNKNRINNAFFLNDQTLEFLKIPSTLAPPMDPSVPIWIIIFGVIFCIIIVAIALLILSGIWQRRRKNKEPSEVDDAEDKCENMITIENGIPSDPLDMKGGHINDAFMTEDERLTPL
Assay: Isoleucine transport assay, Flp-In T-REx 293 cells coexpressing human SLC6A19 and TMEM27
Format: cell-based
Settings: for isoleucine transport, Human (Fig 1f curve point) / isoleucine transport, Human (Fig 1c curve point): technical replicates
Method: Flp-In T-REx 293 cells (Thermo Fisher Scientific) were engineered to coexpress C-terminally V5-tagged human or mouse SLC6A19 under the control of a tetracycline-inducible promoter and human or mouse myc-DDK-tagged TMEM27 under the control of a constitutively active promoter. Cells were maintained in DMEM/F12 medium supplemented with 10% FBS, 100 units/mL penicillin, 100 μg/mL streptomycin, 200 μg/mL hygromycin, 10 μg/mL blasticidin, and 300 μg/mL geneticin (all from Thermo Fisher Scientific) at 37°C and 5% CO2.
Flp-In T-REx 293 cells stably coexpressing human or mouse SLC6A19 and TMEM27 were plated in 384-well plates in the presence of 1 μg/mL tetracyclin (Sigma-Aldrich) to induce the expression of SLC6A19. After 24 hours, cells were washed with live cell imaging solution (LCIS, Thermo Fisher Scientific) before JN-170 or JNT-517 were added to cells in 10-point concentration response curves in 0.5% DMSO in Krebs buffer (140 mM NaCl, 4.7 mM KCl, 2.5 mM CaCl2, 1.2 mM MgCl2, 11 mM HEPES, 10 mM glucose, pH 7.4). Cells were incubated with compounds for 1 hour at room temperature before 1 mM ^13C6,^15N1-labeled L-isoleucine (Cambridge Isotope Laboratories) was added as a transport substrate. After 20 minutes incubation at room temperature, cells were washed and lysed in H2O with 15 μM internal standard D-Leucine-D10 (CDN Isotopes) for 1–2 hours. A standard curve of ^13C6,^15N1-L-isoleucine was added to each plate following cell lysis. Plates were centrifuged at 3,700g to remove cell debris, and supernatant was diluted in 2 steps to a final 1:10 dilution in acetonitrile/0.1% formic acid. Sample desalting was performed on a high throughput RapidFire-365 (Agilent) using a hydrophilic interaction liquid chromatography (HILIC) column. A quantitative time-of-flight (Q-ToF) mass spectrometer (Agilent) was used to detect analytes. Agilent MassHunter quantitative analysis for time of flight was used as the integration software for measuring area under the peak for both ^13C6,^15N1-L-isoleucine and D-Leucine-D10 internal standard.
IC50 values for transport inhibition in cells overexpressing SLC6A19 and TMEM27 were calculated using a 4-parameter logistic regression in Collaborative Drug Discovery (CDD). Reported IC50 values are geometric means of 4–6 independent experiments. For postmortem intestinal transport assays, single outliers of quadruplicate replicates were excluded from the calculation if a signal value’s distance to the mean exceeded 35% of the signal average. The IC50 values of individual experiments were calculated with a 3- or 4-parameter logistic regression using GraphPad Prism 9. The reported IC50 value represents the geometric mean of n = 5 experiments from 3 individual donors. Statistical comparison of urinary Phe excretion in Pah^enu2 mice treated with vehicle or JN-170 was conducted using 1-way analysis of variance (ANOVA) with Tukey’s post hoc comparison. Statistical analysis of baseline-adjusted plasma Phe in mice treated with vehicle or JN-170 was determined by 2-way ANOVA with Dunnett’s post hoc comparison. All statistical analyses were performed using GraphPad Prism 9. For clinical studies, group sizes were not determined based on statistical power calculations. Statistical significance of pharmacodynamic results was not assessed. Values are reported as mean (urinary Phe excretion, T1/2, Cl/F), geometric mean (Cmax/D, AUC0-inf/D), or median (Tmax).

fold less potent against human SLC6A19 than mouse SLC6A19: > 10 fold
isoleucine transport, Human (Fig 1f curve point) (0.000722 uM): 84.3 and 86.8
isoleucine transport, Human (Fig 1f curve point) (0.00219 uM): 72.6 and 89.2
isoleucine transport, Human (Fig 1f curve point) (0.00438 uM): 81.4 and 98.3
isoleucine transport, Human (Fig 1f curve point) (0.015313 uM): 84.4 and 88.8
isoleucine transport, Human (Fig 1f curve point) (0.048125 uM): 85.9 and 72.3
isoleucine transport, Human (Fig 1f curve point) (0.144375 uM): 64.5 and 70.3
isoleucine transport, Human (Fig 1f curve point) (0.4375 uM): 40 and 54.4
isoleucine transport, Human (Fig 1f curve point) (1.3125 uM): 41.1 and 23.8
isoleucine transport, Human (Fig 1f curve point) (3.9375 uM): 21 and 4.32
isoleucine transport, Human (Fig 1f curve point) (11.8125 uM): 2.26 and -9.71
IC50 (geometric mean n = 6, 95% CI 0.68–2.82 μM, read-out: IC50 against human SLC6A19, isoleucine transport assay): 1.25 µM
SMILES: N#Cc1ccc(-c2noc([C@]3(C(F)(F)F)CCN(C(=O)NCCC4(N)CC4)C3)n2)cc1 [JN-170]

SMILES: NC(=O)N1CCC[C@@H](N(C(=O)NCc2ccc(OC(F)(F)F)cc2F)C2CC2)C1 [JNT-517]
isoleucine transport, Human (Fig 1c curve point) (0.000722 uM): 89.9 and 94.8
isoleucine transport, Human (Fig 1c curve point) (0.00219 uM): 91.3 and 95.5
isoleucine transport, Human (Fig 1c curve point) (0.00438 uM): 79.4 and 85.4
isoleucine transport, Human (Fig 1c curve point) (0.0153125 uM): 71.2 and 80.7
isoleucine transport, Human (Fig 1c curve point) (0.048125 uM): 33.9 and 45.4
isoleucine transport, Human (Fig 1c curve point) (0.144375 uM): 25.9 and 24
isoleucine transport, Human (Fig 1c curve point) (0.4375 uM): 12.2 and 4.05
isoleucine transport, Human (Fig 1c curve point) (1.3125 uM): -3.01 and -3.67
isoleucine transport, Human (Fig 1c curve point) (3.9375 uM): -3.2 and -3.39
isoleucine transport, Human (Fig 1c curve point) (11.8125 uM): -9.74 and -5.08
IC50 (geometric mean n = 4, 95% CI 38–57 nM, read-out: potency (IC50) against human SLC6A19, isoleucine transport assay): 0.047 µM
